Each structure is given as a SMILES string.

Experiment [1] has as its target Cathepsin S (Homo sapiens, UniProt P25774). Description: (§1) Enzyme Assay: Recombinant human cathepsins (CatS, CatK, CatL) were purchased from a Enzo Life Sciences. All assays were carried out in 96-well format using a buffer of 50 mM KH2PO4, 50 mM NaCl, 2 mM EDTA, 0.5 mM DTT and 1% Triton-X-100, pH 6.5 for Cathepsin S and a buffer of 50 mM NaOAc, 10 mM EDTA, 1 mM DTT and 0.01% Triton-X-100, pH 5.5 for CatK/L/B. For CatS, the enzyme (0.0007 mU/well) was incubated with fluorogeninc substrate (Z-VVR-AMC, 5 μM) at RT for 10 min. For CatK the enzyme (0.00175 mU/well) was incubated with fluorogeninc substrate (Z-FR-AMC, 40 μM) at RT for 10 min. For CatL, the enzyme (0.000874 mU/well) was incubated with fluorogeninc substrate (Z-VVR-AMC, 40 μM) at RT for 10 min. Flourogenic substrate turnover was detected using a microplate reader (Synergy H4, BioTek). Ki values were calculated using the Cheng Prusoff equation (Cheng & Prosoff 1973).

The target of experiment [2] is T1, Cathepsin K (Homo sapiens, UniProt P43235).
T1 sequence (P43235 whole entry): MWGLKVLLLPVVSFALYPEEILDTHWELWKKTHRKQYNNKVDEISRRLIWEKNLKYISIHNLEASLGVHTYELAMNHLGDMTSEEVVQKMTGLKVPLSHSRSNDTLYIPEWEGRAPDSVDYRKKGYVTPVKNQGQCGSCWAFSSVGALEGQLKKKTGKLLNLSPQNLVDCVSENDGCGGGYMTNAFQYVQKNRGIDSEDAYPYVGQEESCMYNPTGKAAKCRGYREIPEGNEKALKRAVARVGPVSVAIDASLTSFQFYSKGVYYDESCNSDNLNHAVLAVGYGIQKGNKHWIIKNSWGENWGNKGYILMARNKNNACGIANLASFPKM
Described as §1.

Sequence of Cathepsin S (P25774 whole entry): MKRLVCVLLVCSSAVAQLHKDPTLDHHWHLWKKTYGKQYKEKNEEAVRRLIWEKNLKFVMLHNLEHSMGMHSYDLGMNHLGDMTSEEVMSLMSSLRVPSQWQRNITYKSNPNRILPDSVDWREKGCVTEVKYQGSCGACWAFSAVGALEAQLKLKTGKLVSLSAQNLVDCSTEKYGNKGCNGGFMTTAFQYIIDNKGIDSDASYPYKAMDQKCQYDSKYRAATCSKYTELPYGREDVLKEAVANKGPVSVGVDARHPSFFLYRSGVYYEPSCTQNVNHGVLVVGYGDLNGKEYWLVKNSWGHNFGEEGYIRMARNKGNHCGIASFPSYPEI

Regarding `O=C(N[C@H](C(=O)N1C[C@H](Cl)[C@H]2OCC(=O)[C@H]21)C1CCCCC1)c1ccc(-c2ccncn2)o1`, the Ki in experiment [1] is 699 nM; in experiment [2], 262 nM.

`O=C(N[C@H](C(=O)N1C[C@H](Cl)[C@H]2OCC(=O)[C@H]21)C1CCCCC1)c1cnc(-c2ccnnc2)o1`: the results for the Ki in experiment [1] and in experiment [2] were 527 nM and 278 nM, respectively.

Turning to `Cc1nccc(-c2ccc(C(=O)N[C@H](C(=O)N3C[C@H](Cl)[C@H]4OCC(=O)[C@H]43)C3CCCCC3)s2)n1`, the figures for the Ki in experiment [1] and in experiment [2] were 238 nM and 9 nM, respectively.

In the case of `COc1ccc(-c2ccc(C(=O)N[C@H](C(=O)N3C[C@H](Cl)[C@H]4OCC(=O)[C@H]43)C3CCCCC3)s2)nn1`, the Ki in experiment [1] is 344 nM; in experiment [2], 16 nM.

With `O=C(N[C@H](C(=O)N1C[C@H](Cl)[C@H]2OCC(=O)[C@H]21)C1CCCCC1)c1ccc(-c2cccnc2)o1`, the inhibition constant (Ki) in experiment [1] is 612 nM; in experiment [2], 54 nM.

Regarding `O=C(N[C@H](C(=O)N1C[C@H](Cl)[C@H]2OCC(=O)[C@H]21)C1CCCCC1)c1nnc(-c2ccncc2)s1`, the Ki in experiment [2] is 14 nM.

By Ki is commonly meant the equilibrium dissociation constant of an inhibitor or competing ligand from its target.

Values taken from ChEMBL document CHEMBL5726286, “3-oxo-tetrahydro-furo[3,2-B]pyrrol-4(5H)-yl) derivatives I” (2017).
